From patent US11083707B2, “Substituted indoline derivatives as dengue viral replication inhibitors” (JANSSEN PHARMACEUTICALS, INC., priority 2017, dated 2021)
Where two headings read alike, the source gives them in different places.

Columns and labels:
[1] = test system: DENV-2 16681 strain; assay: DENV-2 antiviral assay (eGFP fluorescence, Vero cells); assay type: cell-based, Dengue virus; settings: DENV-2 16681 eGFP, MOI 0.5, 3 days
Experimental: The antiviral activity of all the compounds of the invention was tested against the DENV-2 16681 strain which was labeled with enhanced green fluorescent protein (eGPF). The culture medium consists of minimal essential medium supplemented with 2% of heat-inactivated fetal calf serum, 0.04% gentamycin (50 mg/mL) and 2 mM of L-glutamine. Vero cells, obtained from ECACC, were suspended in culture medium and 25 μL was added to 384-well plates (2500 cells/well), which already contain the antiviral compounds. Typically, these plates contain a 5-fold serial dilution of 9 dilution steps of the test compound at 200 times the final concentration in 100% DMSO (200 nL). […] Finally, each plate contains wells which are assigned as virus controls (containing cells and virus in the absence of compound), cell controls (containing cells in the absence of virus and compound) and medium controls (containing medium in the absence of cells, virus and compounds). To the wells assigned as medium control, 25 μL of culture medium was added instead of Vero cells. Once the cells were added to the plates, the plates were incubated for 30 minutes at room temperature to allow the cells to distribute evenly within the wells. Next, the plates were incubated in a fully humidified incubator (37° C., 5% CO2) until the next day. Then, DENV-2 strain 16681, labeled with eGFP, was added at a multiplicity of infection (MOI) of 0.5. Therefore, 15 μL of virus suspension was added to all the wells containing test compound and to the wells assigned as virus control. In parallel, 15 μL of culture medium was added to the medium and cell controls. Next, the plates were incubated for 3 days in a fully humidified incubator (37° C., 5% CO2). At the day of the read out, the eGFP fluorescence was measured using an automated fluorescence microscope at 488 nm (blue laser). Using an in-house LIMS system, inhibition dose response curves for each compound were calculated and the half maximal effective concentration (EC50) was determined. Therefore, the percent inhibition (I) for every test concentration is calculated using the following formula: I=100*(ST-SCC)/(SVC-SCC), ST, SCC and SVC are the amount of eGFP signal in the test compound, cell control and virus control wells, respectively. The EC50 represents the concentration of a compound at which the virus replication is inhibited with 50%, as measured by a 50% reduction of the eGFP fluorescent intensity compared to the virus control. The EC50 is calculated using linear interpolation (Table 1).

[2] = test system: DENV-1 strain TC974#666; assay: Tetravalent RT-qPCR assay Protocol A, serotype 1; assay type: cell-based; settings: Dengue virus, DENV1, 72 h; RT-qPCR serotype 1 TC974#666, Vero cells, day 3
Experimental: (§1) The antiviral activity of the compounds of the invention was tested against DENV-1 strain TC974#666 (NCPV), DENV-2 strain 16681, DENV-3 strain H87 (NCPV) and DENV-4 strain H241 (NCPV) in a RT-qPCR assay. Therefore, Vero cells were infected with either DENV-1, or -2, or -3, or -4 in the presence or absence of test compounds. At day 3 post-infection, the cells were lysed and cell lysates were used to prepare cDNA of both a viral target (the 3′UTR of DENV; Table 2) and a cellular reference gene (β-actin, Table 2). Subsequently, a duplex real time PCR was performed on a Lightcycler480 instrument. The generated Cp value is inversely proportional to the amount of RNA expression of these targets. Inhibition of DENV replication by a test compound results in a shift of Cp's for the 3′UTR gene. On the other hand, if a test compound is toxic to the cells, a similar effect on β-actin expression will be observed. The comparative ΔΔCp method is used to calculate EC50, which is based on the relative gene expression of the target gene (3′UTR) normalized with the cellular housekeeping gene (β-actin). In addition, CC50 values are determined based on the Cp values acquired for the housekeeping gene β-actin.
(§2) The culture medium consisted of minimal essential medium supplemented with 2% of heat-inactivated fetal calf serum, 0.04% gentamycin (50 mg/mL) and 2 mM of L-glutamine. Vero cells, obtained from ECACC, were suspended in culture medium and 75 μL/well was added in 96-well plates (10000 cells/well), which already contain the antiviral compounds. […] In addition, each plate contains wells which are assigned as virus controls (containing cells and virus in the absence of compound) and cell controls (containing cells in the absence of virus and compound). Once the cells were added in the plates, the plates were incubated in a fully humidified incubator (37° C., 5% CO2) until the next day. Dengue viruses serotype-1, 2, 3 and 4 were diluted in order to obtain a Cp of ˜22-24 in the assay. Therefore, 25 μL of virus suspension was added to all the wells containing test compound and to the wells assigned as virus control. In parallel, 25 μL of culture medium was added to the cell controls. Next, the plates were incubated for 3 days in a fully humidified incubator (37° C., 5% CO2). After 3 days, the supernatant was removed from the wells and the cells were washed twice with ice-cold PBS (˜100 μL). The cell pellets within the 96-well plates were stored at −80° C. for at least 1 day. Next, RNA was extracted using the Cells-to-CT™ lysis kit, according to the manufacturer's guideline (Life Technologies). The cell lysates can be stored at −80° C. or immediately used in the reverse transcription step.
(§3) In preparation of the reverse transcription step, mix A (table 3A) was prepared and 7.57 μL/well was dispensed in a 96-well plate. After addition of 5 μL of the cell lysates, a five minute denaturation step at 75° C. was performed (table 3B). Afterwards, 7.43 μL of mix B was added (table 3C) and the reverse transcription step was initiated (table 3D) to generate cDNA.
(§4) Finally, a RT-qPCR mix was prepared, mix C (table 4A), and 22.02 μL/well was dispensed in 96-well LightCycler qPCR plates to which 3 μL of cDNA was added and the qPCR was performed according to the conditions in table 4B on a LightCycler 480.
(§5) Using the LightCycler software and an in-house LIMS system, dose response curves for each compound were calculated and the half maximal effective concentration (EC50) and the half maximal cytotoxic concentration (CC50) were determined (Tables 5-8).

[3] = test system: DENV-2 strain 16681; assay: Tetravalent RT-qPCR assay Protocol A, serotype 2; assay type: cell-based; settings: Dengue virus
Experimental: as §1, §2, §3, §4, §5

[4] = test system: DENV-3 strain H87; assay: Tetravalent RT-qPCR assay Protocol A, serotype 3; assay type: cell-based; settings: Dengue virus, DENV3, 72 h; RT-qPCR serotype 3 H87, Vero cells, day 3
Experimental: as §1, §2, §3, §4, §5

[5] = test system: DENV-4 strain H241; assay: Tetravalent RT-qPCR assay Protocol A, serotype 4; assay type: cell-based; settings: Dengue virus, DENV4, 72 h; RT-qPCR serotype 4 H241, Vero cells, day 3
Experimental: as §1, §2, §3, §4, §5

[6] = test system: Vero cells; settings: African green monkey
[7] = in vitro; assay type: cell-based; settings: African green monkey
Experimental: as §1, §2, §3, §4, §5

[8] = in vitro; settings: African green monkey
[9] = DENV2, 72 h, RT-qPCR serotype 2 16681, Vero cells, day 3, read-out: EC50

## COc1cc(NC(C(=O)N2CCc3cc(F)c(OC(F)(F)F)cc32)c2ccc(Cl)cc2OCCCC(=O)O)cc(-n2cncn2)c1 (single isomer, unassigned) [Compound 15B]
[1]
  EC50: 0.13 nM
[2]
  EC50: 0.13 nM
[3]; DENV2, Vero, 72 h
  EC50: 0.1 nM
[4]
  EC50: 2.8 nM
[5]
  EC50: 15 nM
[6]
  CC50: 11000 nM

## COc1cc(NC(C(=O)N2CCc3cc(OC)c(C(F)(F)F)cc32)c2ccc(Cl)cc2OCCO)cc(-n2cncn2)c1 (single isomer, unassigned) [Compound 5B]
[1]
  EC50: 0.62 nM
[2]
  EC50: 2 nM
[3]; [9]
  EC50: 0.52 nM
[4]
  EC50: 15 nM
[5]
  EC50: 90 nM
[7]
  CC50 at 3 days: > 2500 nM
[6]
  CC50: 9200 nM

## COc1cc(NC(C(=O)N2CCc3cc(OC)c(OC(F)(F)F)cc32)c2ccc(Cl)cc2OCCO)cc(-n2cncn2)c1 (single isomer, unassigned) [Compound 8A]
[1]
  EC50: 1.5 nM
[2]
  EC50: 2 nM
[3]; DENV2, Vero, 72 h
  EC50: 0.38 nM
[4]
  EC50: 15 nM
[5]
  EC50: 56 nM
[8]
  CC50: 12000 nM

## COc1cc(NC(C(=O)N2CCc3cc(F)c(C(F)(F)F)cc32)c2ccc(Cl)cc2OCCO)cc(-n2cncn2)c1 (single isomer, unassigned) [Compound 7B]
[1]
  EC50: 1.8 nM
[2]
  EC50: 0.88 nM
[3]; [9]
  EC50: 1.9 nM
[4]
  EC50: 13 nM
[5]
  EC50: 120 nM
[6]
  CC50: 7600 nM

## COc1cc(NC(C(=O)N2CCc3ccc(C(F)(F)F)cc32)c2ccc(F)cc2OCCO)cc(-n2cncn2)c1 (single isomer, unassigned) [Compound 1B]
[1]
  EC50: 2.8 nM
[2]
  EC50: 1.5 nM
[3]; [9]
  EC50: 2.4 nM
[4]
  EC50: 25 nM
[5]
  EC50: 180 nM
[7]
  CC50 at 3 days: > 2500 nM
[6]
  CC50: 9800 nM

## COc1cc(NC(C(=O)N2CCc3c(C)cc(OC(F)(F)F)cc32)c2ccc(Cl)cc2OCCO)cc(-n2cncn2)c1 (single isomer, unassigned) [Compound 10B]
[1]
  EC50: 0.25 nM
[2]
  EC50: 0.36 nM
[3]; [9]
  EC50: 0.15 nM
[4]
  EC50: 5.9 nM
[5]
  EC50: 32 nM
[6]
  CC50: 11000 nM

## COc1cc(NC(C(=O)N2CCc3cc(OC)c(C(F)(F)F)cc32)c2ccc(Cl)cc2OCCCC(=O)O)cc(-n2cncn2)c1 (single isomer, unassigned) [Compound 12B]
[1]
  EC50: 320 nM
[6]
  CC50: 12000 nM

## COc1cc(NC(C(=O)N2CCc3ccc(OC(F)(F)F)cc32)c2ccc(F)cc2OCCO)cc(-n2cncn2)c1 (single isomer, unassigned) [Compound 3B]
[1]
  EC50: 0.99 nM
[2]
  EC50: 2.4 nM
[3]; [9]
  EC50: 1.4 nM
[4]
  EC50: 23 nM
[5]
  EC50: 98 nM
[6]
  CC50: 8700 nM

## COc1cc(NC(C(=O)N2CCc3ccc(OC(F)(F)F)cc32)c2ccc(Cl)cc2OCCCC(=O)O)cc(-n2cncn2)c1 (single isomer, unassigned) [Compound 13B]
[1]
  EC50: 12 nM
[6]
  CC50: 12000 nM

## COc1cc(NC(C(=O)N2CCc3ccc(OC(F)(F)F)cc32)c2ccc(Cl)cc2OCCO)cc(-n2cncn2)c1 (single isomer, unassigned) [Compound 6A]
[1]
  EC50: 0.59 nM
[2]
  EC50: 0.64 nM
[3]; [9]
  EC50: 0.49 nM
[4]
  EC50: 8.1 nM
[5]
  EC50: 60 nM
[8]
  CC50: 8500 nM

## COc1cc(NC(C(=O)N2CCc3ccc(C(F)(F)F)cc32)c2ccc(Cl)cc2OCCO)cc(-n2cncn2)c1 (single isomer, unassigned) [Compound 4B]
[1]
  EC50: 1 nM
[2]
  EC50: 0.57 nM
[3]; [9]
  EC50: 0.45 nM
[4]
  EC50: 11 nM
[5]
  EC50: 76 nM
[7]
  CC50 at 3 days: > 2500 nM
[6]
  CC50: 11000 nM

## COc1cc(NC(C(=O)N2CCc3ccc(OC(F)(F)F)cc32)c2ccc(Cl)cc2OCCO)cc(-n2cncn2)c1 (single isomer, unassigned) [Compound 6B]
[1]
  EC50: 92 nM
[6]
  CC50: 7300 nM

## COc1cc(NC(C(=O)N2CCc3cc(F)c(OC(F)(F)F)cc32)c2ccc(Cl)cc2OCCO)cc(-n2cncn2)c1 (single isomer, unassigned) [Compound 9B]
[1]
  EC50: 0.6 nM
[2]
  EC50: 0.99 nM
[3]; [9]
  EC50: 0.47 nM
[4]
  EC50: 6.4 nM
[5]
  EC50: 87 nM
[6]
  CC50: 10000 nM

## COc1cc(NC(C(=O)N2CCc3cc(OC)c(C(F)(F)F)cc32)c2ccc(F)cc2OCCO)cc(-n2cncn2)c1 (single isomer, unassigned) [Compound 2B]
[1]
  EC50: 1.8 nM
[2]
  EC50: 6 nM
[3]; [9]
  EC50: 2.1 nM
[4]
  EC50: 38 nM
[5]
  EC50: 150 nM
[7]
  CC50 at 3 days: > 2500 nM
[6]
  CC50: 10000 nM

## COc1cc(NC(C(=O)N2CCc3ccc(OC(F)(F)F)cc32)c2ccc(Cl)cc2OCCCC(=O)O)cc(-n2cncn2)c1 (single isomer, unassigned) [Compound 13A]
[1]
  EC50: 0.12 nM
[2]
  EC50: 0.12 nM
[3]; [9]
  EC50: 0.057 nM
[4]
  EC50: 1.8 nM
[5]
  EC50: 10 nM
[7]
  CC50 at 3 days: > 2500 nM
[8]
  CC50: 12000 nM

## COc1cc(NC(C(=O)N2CCc3cc(OC)c(C(F)(F)F)cc32)c2ccc(Cl)cc2OCCCC(=O)O)cc(-n2cncn2)c1 (single isomer, unassigned) [Compound 12A]
[1]
  EC50: 1.2 nM
[2]
  EC50: 2.1 nM
[3]; [9]
  EC50: 0.42 nM
[4]
  EC50: 36 nM
[5]
  EC50: 100 nM
[8]
  CC50: 13000 nM

## COc1cc(NC(C(=O)N2CCc3cc(F)c(OC(F)(F)F)cc32)c2ccc(Cl)cc2OCCO)cc(-n2cncn2)c1 (single isomer, unassigned) [Compound 9A]
[1]
  EC50: 250 nM
[6]
  CC50: 4200 nM
